Reference: ChEMBL document CHEMBL4665640, “Structure-Activity Relationship Studies of 3- or 4-Pyridine Derivatives of DS-6930” (ACS Med Chem Lett, 2019)

How the values were obtained:
[1] = 1-octanol/phosphate buffer distribution coefficient, log D of the compound at pH 7.4 measured after 30 mins by HPLC-LC/MS based shake flask method; assay type: physicochemical
[2] = Microsomal stability in monkey liver microsomes assessed as parent compound remaining after 30 mins; assay type: ADME, Macaca mulatta, Microsome; settings: rhesus monkey, read-out: Stabilty
[3] = Microsomal stability in human liver microsomes assessed as parent compound remaining after 30 mins; assay type: ADME, Microsome; settings: read-out: Stabilty
[4] = Microsomal stability in rat liver microsomes assessed as parent compound remaining after 30 mins; assay type: ADME, Microsome; settings: read-out: Stabilty
[5] = Half life in cynomolgus monkey at 3 mg/kg, po by LC-MS/MS analysis; assay type: ADME, organism-based, Macaca fascicularis; settings: in vivo
[6] = Bioavailability in cynomolgus monkey at 1 mg/kg, iv by LC-MS/MS analysis; assay type: ADME, organism-based, Macaca fascicularis; settings: in vivo
[7] = Clearance in cynomolgus monkey at 1 mg/kg, iv by LC-MS/MS analysis; assay type: ADME, organism-based, Macaca fascicularis; settings: in vivo
[8] = Tmax in cynomolgus monkey at 3 mg/kg, po by LC-MS/MS analysis; assay type: ADME, organism-based, Macaca fascicularis; settings: in vivo
[9] = Volume of distribution at steady state in cynomolgus monkey at 1 mg/kg, iv by LC-MS/MS analysis; assay type: ADME, organism-based, Macaca fascicularis; settings: in vivo, read-out: Vdss
[10] = AUClast in cynomolgus monkey at 3 mg/kg, po by LC-MS/MS analysis; assay type: ADME, organism-based, Macaca fascicularis; set-up: time 0 - last, route oral, dose 3 mg/kg; settings: in vivo
[11] = Cmax in cynomolgus monkey at 3 mg/kg, po by LC-MS/MS analysis; assay type: ADME, organism-based, Macaca fascicularis; set-up: route oral, dose 3 mg/kg; settings: in vivo

| SMILES | logD at 0.5 h [1] | remaining at 0.5 h [3] [%] | also measured |
| --- | --- | --- | --- |
| COc1cc(Oc2ccc3nc(COc4cccc(C(=O)O)c4)n(C)c3c2)cc(C)n1 | 1.7 | 96 | remaining at 0.5 h [2]: 85%; remaining at 0.5 h [4]: 96% |
| Cc1ccncc1Oc1ccc2nc(COc3cccc(C(=O)O)c3)n(C)c2c1 | 0.8 | 100 |  |
| Cc1ccc(Oc2cc(OC(C)C)c3nc(COc4cccc(C(=O)O)c4)n(C)c3c2)c(C)n1 | 1.9 | 91 | remaining at 0.5 h [2]: 81%; remaining at 0.5 h [4]: 65% |
| CCCOc1cc(Oc2ccc(C)nc2C)cc2c1nc(COc1cccc(C(=O)O)c1)n2C | 2.2 |  |  |
| Cc1cc(Oc2ccc3nc(COc4cccc(C(=O)O)c4)n(C)c3c2)cc(C)n1 | 1 |  |  |
| COc1cc(Oc2ccc3nc(COc4cccc(C(=O)O)c4)n(C)c3n2)cc(C)n1 | 1.2 | 91 | remaining at 0.5 h [2]: 100%; half-life [5]: 7.3 h; bioavailability [6]: 18%; clearance [7]: 2.08 mL/min/kg; Tmax [8]: 4.5 h; remaining at 0.5 h [4]: 98%; Vd [9]: 0.35 L/kg; AUC(0-t) [10]: 5120 ng·h/mL; Cmax [11]: 500 ng/mL |
| Cc1ncccc1Oc1ccc2nc(COc3cccc(C(=O)O)c3)n(C)c2c1 | 1 | 98 |  |
| COc1ncc(Oc2ccc3nc(COc4cccc(C(=O)O)c4)n(C)c3c2)cc1C | 2 | 100 | remaining at 0.5 h [2]: 98%; remaining at 0.5 h [4]: 82% |
| COc1ncccc1Oc1ccc2nc(COc3cccc(C(=O)O)c3)n(C)c2c1 | 0.9 |  |  |
| Cc1cnc(Oc2cc(OC(C)C)c3nc(COc4cccc(C(=O)O)c4)n(C)c3c2)c(C)c1 | 2 | 96 | remaining at 0.5 h [2]: 84%; remaining at 0.5 h [4]: 13% |
| CCOc1cc(Oc2ccc3nc(COc4cccc(C(=O)O)c4)n(C)c3c2)ccn1 | 1.8 | 94 |  |
| COc1ccc(Oc2ccc3nc(COc4cccc(C(=O)O)c4)n(C)c3c2)c(C)n1 | 1.7 |  |  |
| COc1ccc(Oc2ccc3nc(COc4cccc(C(=O)O)c4)n(C)c3c2)cn1 | 1.3 |  |  |
| Cn1c(COc2cccc(C(=O)O)c2)nc2ccc(Oc3ccnc(Cl)c3)cc21 | 1.1 |  |  |
| COc1cc(Oc2ccc(C)nc2C)cc2c1nc(COc1cccc(C(=O)O)c1)n2C | 1.2 |  |  |
| Cn1c(COc2cccc(C(=O)O)c2)nc2ccc(Oc3cccnc3)cc21 | 0.5 | 100 |  |
| CCOc1cc(Oc2ncc(C)cc2C)cc2c1nc(COc1cccc(C(=O)O)c1)n2C | 1.7 | 100 |  |
